The record followed here is PMC3158281 (Nature chemical biology, 2011).

Square brackets hold non-standard residues; d marks the D form. Ends that are not written are not given here. * marks the point of attachment. FITC = O=C1OC2(c3ccc(O)cc3Oc3cc(O)ccc32)c2ccc(NC(=S)*)cc21; Pmab = not defined here; PEG = not defined here

One assay relates to HeLa cells. The assay can be described thus: Mitotic arrest and apoptotic cell death in cultured HeLa cells. The following applies: 100 nM. The assay is classed as cell-based, human.
The target in a further assay is T1, peptide 9 (synthetic construct, not fully specified (residue 3); reading uncertain).
T1 chain: {FITC-PEG}-PLHS[Pmab]
Put plainly: fluorescence polarization. A general note: In fluorescence polarisation assays a small probe gives low polarisation when free and higher when bound to something large.

Take `CC[C@@H]1C(=O)N(C)c2cnc(Nc3ccc(C(=O)NC4CCN(C)CC4)cc3OC)nc2N1C1CCCC1` [BI 2536]: the “induction of mitotic arrest and apoptotic cell death” value with HeLa cells was “induced a greatly delayed, but pronounced mitotic arrest and apoptotic cell death”.

B1: Plk3 PBD PBD (protein)
chain: WVSKWVDYSNKFGFGYQLSSRRVAVLFNDGTHMALSANRKTVHYNPTSTKHFSFSVGAVPRALQPQLGILRYFASYMEQHLMKGGDLPSVEEVEVPAPPLLLQWVKTDQALLMLFSDGTVQVNFYGDHTKLILSGWEPLLVTFVARNRSACTYLASHLRQLGCSPDLRQRLRYALRLLRDRSP
Regarding B1, in the assay with peptide 9, the Kd amounted to 460 nM.

For orientation: Kd means a measure of binding affinity in units of concentration.
